Data from patent publication US9101628B2, “Methods and composition of treating a flaviviridae family viral infection” (The Board of Trustees of the Leland Stanford Junior …, priority 2007, dated 2015).
Read-outs that look alike come from different tables or passages of the source.

Experiments:
hERG channel = hERG channel (Homo sapiens, UniProt Q12809)
R214Q NS4B mutant HCV = assay: Luciferase reporter linked replication assay, R214Q mutant; type: cell-based
[1] = test system: replicon harboring the A156T mutation; assay: Whole cell RNA electroporation, SCH503034 resistant clone; type: cell-based, HCV
W55R mutant J6/JFH RNA = assay: Luciferase reporter-linked replication assay, W55R mutant; type: cell-based, HCV
From the text: Two of the clemizole-resistant NS4B mutants were characterized in detail. The first, W55R is depicted in FIG. 6a. It involves the substitution of an arginine for the tryptophan at amino acid 55 within a predicted cytoplasmically-oriented segment of NS4B. This mutation is sufficient to confer a clemizole-resistant phenotype in cells: Huh7.5 cells transfected with either whole cell RNA extracted from the W55R mutant cells (FIG. 6b) or with in vitro-transcribed J6/JFH RNA encoding this point mutation and a linked luciferase reporter gene (FIG. 6c) were unaffected by 10 μM clemizole.
The plasmid FL-J6/JFH-5′C19Rluc2AUbi that consists of the full-length HCV genome and expresses Renilla luciferase was a gift from Dr. Charles M. Rice. The W55R mutation was introduced into this plasmid by site-directed mutagenesis (using the QuikChange kit (Stratagene)).
Medium was changed daily.

W55R NS4B mutant = molecular target: T1, W55R NS4B mutant (Hepatitis C virus genotype 1a, UniProt P27958, A1893V/D1840G/F1898S/L1839I/R1905H/S1900A/W1766R); assay: In vitro microfluidic RNA binding assay, W55R NS4B mutant; set-up: species or system HCV; conditions: 10 nM clemizole
T1 construct: made in house; host or cells: in vitro transcription/translation, inferred from the way wild-type NS4B-GFP was made; not repeated for the mutant

[2] = test system: infectious HCV clone (J6/JFH); assay: Real-time PCR assay of HCV replication in HCV-infected Huh7.5 cells; type: cell-based; conditions: real-time PCR (FIG. 8)
Procedure: 5×10^4 Huh7.5 ells were infected with cell culture-grown HCV titered at 1.4×10^4 TCID50/ml, as described. 2 hours after infection, cells were washed three times in culture medium. Cells were then treated daily with various concentrations of clemizole. After 72 hours, samples were subjected to the viability assay described above, following which TRIzol Reagent (Invitrogen) was added and total cell RNA was extracted in triplicates according to the manufacturer's instructions. Reverse transcription was then performed using random hexamers and Superscript II reverse transcriptase (Invitrogen, Carlsbad, Calif.). Real-time PCR was performed on the resulting cDNA to quantify the amounts of HCV and actin RNA (in separate reactions) in each sample. Standards were made using an in vitro-transcribed HCV RNA and human actin standard (Applied Biosystems, Foster City, Calif.). HCV was quantified using primers […] (SEQ ID NO 8) and […] (SEQ ID NO 9) and probe 6-carboxyfluorescein-[…]-6 (SEQ ID NO 10) carboxytetramethylrhodamine. Actin was quantified using beta-actin control reagents (Applied Biosystems) according to the manufacturer's instructions. HCV RNA level was adjusted to actin level and normalized relative to untreated samples.

[3] = test system: genotype 1b subgenomic HCV replicon (Bart 79I); type: cell-based
[4] = Alamar Blue-based cell viability assay; set-up: species or system human; conditions: human
Procedure: (§1) Total volume per well is 100 μl.
(§2) (or until there is a color change).

Huh7.5 cells = assay: Alamar Blue-based cell viability assay; set-up: species or system human; conditions: at antiviral concentrations, Alamar Blue, 72 hr
Procedure: as §1, §2

HuR = molecular target: T2, HuR (Homo sapiens, UniProt Q15717); assay: HuR RNA binding by microfluidics (specificity of hits); conditions: 0.1 mM
T2 construct: The open reading frames (ORF) of HuR and HuD were obtained from the ORFeome library of cDNA clones (Open biosystems); V5-his (C); made in house; host or cells: cell-free expression on the microfluidic device, from pcDNA-Dest 40 carrying the ORFeome clone (Open Biosystems)
Procedure: Specificity of hits identified in the small molecule screen: To determine the specificity of the hits identified in the small molecule screen, the HuR protein (one of the human RNA binding protein used to validate our RNA binding assay) was selected. […] Binding of HuR to the consensus 4A RNA sequence was tested in the presence of the inhibitory molecules shown to inhibit RNA binding by NS4B. […] Similarly, 0.1 mM of the identified compounds didn't have an inhibitory effect on binding of HuR to the 3′ terminus of the negative HCV RNA strand.

[5] = test system: subgenomic Bart 79I HCV RNA replicon (genotype 1b); assay: microbe, parasite or virus in culture; type: cell-based; conditions: Hepatitis C virus; genotype 1b luciferase reporter, 72 hr; read-out: EC50 HCV replication
[6] = molecular target: NS4B (binding to 3′ terminus negative strand HCV RNA) (Hepatitis C virus genotype 1a, UniProt P27958); assay: In vitro microfluidic NS4B RNA binding assay; conditions: wild type NS4B, 10 nM clemizole
[7] = test system: replicon harboring the W55R mutation; assay: Whole cell RNA electroporation, clemizole resistant clone; type: cell-based, HCV; conditions: 10 μM clemizole; 2.5 μM SCH503034
Procedure: Whole cell RNA was extracted from clemizole-resistant replicon clones and from untreated replicon cells using TRIzol reagent (Invitrogen). Equal amounts of whole cell RNA (50 μg) were electroporated into Huh7.5 cells as described above. Cells were grown under G418 selection in the presence or absence of clemizole for 3 weeks. The number of colonies was determined using Image J (NIH) following fixation and staining with Crystal violet.
Cells transfected with whole cell RNA extracted from wild type replicon cells were sensitive to both drugs.

HCV (genotype 4) = assay: Treatment of patients chronically infected with HCV; type: in vivo, human; conditions: clemizole 100 milligrams p.o. BID alone, 4 weeks, 3 patients
Procedure: After the first four weeks of clemizole monotherapy, pegylated interferon (180 micrograms Pegasus (Roche) s.q. per week) was added.

Compound | IC50 (hERG channel) | EC50 relative to the EC50 on the wild type RNA (R214Q NS4B mutant HCV) | sensitivity of Huh7.5 cells transfected with whole cell RNA from A156T clone [1] | effect on replication of W55R mutant (W55R mutant J6/JFH RNA; 10 μM clemizole) | EC50 relative to the EC50 on the wild type RNA (W55R mutant J6/JFH RNA; W55R mutant) | reduction of RNA binding (W55R NS4B mutant) | HCV replication levels [2] | decrease of the frequency of resistant colonies selected with 1 μM of SCH503034 ([3]; 4 μM clemizole added) | decrease of the frequency of resistant colonies selected with 1 μM of SCH503034 ([3]; 8 μM clemizole added) | CC50 at 72 h ([4]; genotype 1b experiments, Alamar Blue, 72 hr) | CC50 at 72 h ([4]; genotype 2a experiments, Alamar Blue-based and CellTiter-Blue assay) | cellular toxicity (Huh7.5 cells) | effect on binding of HuR to 4A RNA sequence (HuR) | EC50 [5] | reduction of RNA binding [6] | sensitivity of Huh7.5 cells transfected with whole cell RNA from W55R clone [7] | HCV viral loads in serum (HCV (genotype 4))
COc1ccc(Cn2cnc3c(NS(C)(=O)=O)c(C)c(C)cc32)cc1 [Compound 106] | > 10 µM |  |  |  |  |  |  |  |  |  |  |  |  |  |  |  | 
Clc1ccc(Cn2c(CN3CCCC3)nc3ccccc32)cc1 [clemizole] |  | ~5 times | but not to clemizole | unaffected | 2.25 times | ~2 fold | inhibits HCV replication | 6 folds | 18 folds | 40 ± 5 µM | 35 ± 0.5 µM | no measurable toxicity | No inhibitory effect | 23 ± 7 µM | ~2 fold | unaffected | decreased significantly
